Assay results as given in US20140107109A1, “AMINO-DIHYDROTHIAZINE AND AMINO-DIOXIDO DIHYDROTHIAZINE COMPOUNDS AS BETA-SECRETASE ANTAGONISTS AND METHODS OF USE” (Amgen Inc., priority 2012, published 2014).

Assays:
[1] = system: Aβ40 in conditioned medium of cells stably expressing Amyloid Precursor Protein (APP); test: In vitro BACE cell-based assay (HEK cell assay), Aβ40 sandwich ELISA; conditions: Homo sapiens, HEK293; average IC50, cell assay
Method in brief: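 APP-stably expressing cells (40K/well, grown 24 h in DMEM/10% FBS) were treated 24 h with compounds in 10-point dose response starting at 100 μM or 10 μM, 0.1% DMSO final. Secreted Aβ40 was measured by sandwich ELISA (pAb40 capture, biotinylated 6E10 detection, europium time-resolved fluorescence); IC50 from percent inhibition.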

[2] = molecular target: Beta Secretase enzyme (BACE1) (Homo sapiens, UniProt P56817); test: In vitro enzymatic BACE FRET assay; type: biochemical; conditions: average IC50, enzyme assay; read-out: BACE1 FRET assay IC50
Method in brief: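 BACE1 cleavage of a 50 nM fluorophore/quencher peptide FRET substrate ran for one hour in 0.05 M acetate pH 4.2, 10% DMSO, 100 uM genapol. Tris buffer raised pH to neutrality to stop the reaction before fluorescence was read (excitation 488 nm, […]).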

Cathepsin D (Cat D) = molecular target: T1, Cathepsin D (Cat D) (Homo sapiens, UniProt P07339); test: In vitro enzymatic Cathepsin D (Cat D) FRET assay; type: biochemical; conditions: read-out: CatD IC50
T1 construct: Recombinant Cat D was expressed in CHO cells; made in house; host or cells: CHO cells
Method in brief: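 Recombinant Cat D expressed in CHO cells, used at 9 nM and pre-incubated one hour with serially diluted inhibitor in DMSO. Peptide substrate carries a fluorophore and quencher flanking the cleavage site; reaction stopped with Tris buffer raising pH to neutrality, then fluorescence read.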

Beta Secretase enzyme (BACE1), sequence (P56817 46-501): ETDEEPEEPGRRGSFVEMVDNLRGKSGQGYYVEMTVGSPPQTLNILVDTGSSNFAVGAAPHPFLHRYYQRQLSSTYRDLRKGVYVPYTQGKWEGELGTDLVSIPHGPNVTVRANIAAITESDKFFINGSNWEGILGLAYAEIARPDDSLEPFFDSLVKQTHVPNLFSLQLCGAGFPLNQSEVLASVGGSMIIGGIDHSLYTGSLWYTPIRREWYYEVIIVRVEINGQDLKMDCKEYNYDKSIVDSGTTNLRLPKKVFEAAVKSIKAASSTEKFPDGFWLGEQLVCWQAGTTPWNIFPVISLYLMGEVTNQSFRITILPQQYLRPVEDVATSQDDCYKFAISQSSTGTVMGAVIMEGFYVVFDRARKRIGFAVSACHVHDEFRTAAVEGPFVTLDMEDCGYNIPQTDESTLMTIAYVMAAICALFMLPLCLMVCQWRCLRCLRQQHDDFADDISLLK
T1 sequence (P07339 65-412, species assumed): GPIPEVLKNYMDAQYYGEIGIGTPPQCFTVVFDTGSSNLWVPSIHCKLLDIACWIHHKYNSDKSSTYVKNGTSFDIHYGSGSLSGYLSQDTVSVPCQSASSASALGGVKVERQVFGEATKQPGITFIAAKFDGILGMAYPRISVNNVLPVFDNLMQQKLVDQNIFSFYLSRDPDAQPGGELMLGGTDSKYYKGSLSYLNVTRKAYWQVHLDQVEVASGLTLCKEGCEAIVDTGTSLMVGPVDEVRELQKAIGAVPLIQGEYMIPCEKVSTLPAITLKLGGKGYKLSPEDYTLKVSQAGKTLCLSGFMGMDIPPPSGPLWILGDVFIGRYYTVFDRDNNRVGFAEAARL

SMILES | IC50 [1] [µM] | IC50 [2] [µM] | IC50 (Cathepsin D (Cat D)) [µM]
CC1(C)C(N)=N[C@](CF)(c2cc(Nc3ncnc4cc(C#N)cnc34)ccc2F)CS1(=O)=O [Example 236, 4-((3-((3S)-5-amino-3-(fluoromethyl)-6,6-dimethyl-1,1-dioxido-3,6-dihydro-2H-1,4-thiazin-3-yl)-4-fluorophenyl)amino)pyrido[3,2-d]pyrimidine-7-carbonitrile] | 0.0407 | 0.00073 | 56.1
CCOc1cnc2c(Nc3ccc(F)c([C@]4(CF)CS(=O)(=O)C(C)(C)C(N)=N4)c3)nccc2n1 [Example 237, N-(3-((3S)-5-amino-3-(fluoromethyl)-6,6-dimethyl-1,1-dioxido-3,6-dihydro-2H-1,4-thiazin-3-yl)-4-fluorophenyl)-2-ethoxypyrido[3,4-b]pyrazin-5-amine] | 0.0409 | 0.00285 | 661
CCOc1cnc2c(Nc3ccc(F)c([C@]4(CF)CS(=O)(=O)C5(CCC5)C(N)=N4)c3)nccc2n1 [Example 238, N-(3-((7S)-9-amino-7-(fluoromethyl)-5,5-dioxido-5-thia-8-azaspiro[3.5]non-8-en-7-yl)-4-fluorophenyl)-2-ethoxypyrido[3,4-b]pyrazin-5-amine] | 0.117 | 0.00399 | > 400
N#Cc1cnc2c(Nc3ccc(F)c([C@]4(CF)CS(=O)(=O)C5(CCC5)C(N)=N4)c3)ncc(F)c2c1 [Example 241, 8-((3-((7S)-9-amino-7-(fluoromethyl)-5,5-dioxido-5-thia-8-azaspiro[3.5]non-8-en-7-yl)-4-fluorophenyl)amino)-5-fluoro-1,7-naphthyridine-3-carbonitrile] | 0.0479 | 0.0009 | > 4.94
NC1=N[C@](CF)(c2cc(Nc3nccc4cc(Cl)cnc34)ccc2F)CS(=O)(=O)C12CCC2 [Example 245, N-(3-((7S)-9-amino-7-(fluoromethyl)-5,5-dioxido-5-thia-8-azaspiro[3.5]non-8-en-7-yl)-4-fluorophenyl)-3-chloro-1,7-naphthyridin-8-amine] | 0.0465 | 0.00056 | 290
COc1cnc2c(Nc3ccc(F)c([C@@]45COC[C@@H]4S(=O)(=O)C(C)(C)C(N)=N5)c3)nccc2n1 [Example 247, N-(3-((4aR,7aR)-3-amino-2,2-dimethyl-1,1-dioxido-7,7a-dihydro-2H-furo[3,4-b][1,4]thiazin-4a(5H)-yl)-4-fluorophenyl)-2-methoxypyrido[3,4-b]pyrazin-5-amine] | 2.8 | 0.704 | 477
CC1(C)C(N)=N[C@@]2(c3cc(Nc4nccc5[nH]c(=O)cnc45)ccc3F)COC[C@H]2S1(=O)=O [Example 249, 5-((3-((4aS,7aS)-3-amino-2,2-dimethyl-1,1-dioxido-7,7a-dihydro-2H-furo[3,4-b][1,4]thiazin-4a(5H)-yl)-4-fluorophenyl)amino)pyrido[3,4-b]pyrazin-2(1H)-one] | 0.153 | 0.00636 | 102
COc1cnc2c(Nc3ccc(F)c([C@@]4(C)N=C(N)C(C)(C)S(=O)(=O)C45CC5)c3)nccc2n1 [Example 250, N-(3-((8R)-6-amino-5,5,8-trimethyl-4,4-dioxido-4-thia-7-azaspiro[2.5]oct-6-en-8-yl)-4-fluorophenyl)-2-methoxypyrido[3,4-b]pyrazin-5-amine] | 0.059 | 0.0212 | 113
COc1ccc(CSc2ccc(F)c([C@]3(C)CS(=O)(=O)C(C)(C)C(N)=N3)c2)cc1 [Example 252, (5R)-5-(2-fluoro-5-((4-methoxybenzyl)sulfanyl)phenyl)-2,2,5-trimethyl-5,6-dihydro-2H-1,4-thiazin-3-amine 1,1-dioxide] | 1.9 | 1.21 | 35.9
CC1(C)C(N)=N[C@](C)(c2cc(Oc3nccc4nc(C(F)(F)F)cnc34)ccc2F)CS1(=O)=O [Example 253, (5R)-5-(2-fluoro-5-((2-(trifluoromethyl)pyrido[3,4-b]pyrazin-5-yl)oxy)phenyl)-2,2,5-trimethyl-5,6-dihydro-2H-1,4-thiazin-3-amine 1,1-dioxide] | 1.03 | 0.0276 | 1410
CC1(C)C(N)=N[C@](C)(c2cc(Oc3cc(-c4ccc(C(F)(F)F)cc4)ccn3)ccc2F)CS1(=O)=O [Example 255, (5R)-5-(2-fluoro-5-((4-(4-(trifluoromethyl)phenyl)-2-pyridinyl)oxy)phenyl)-2,2,5-trimethyl-5,6-dihydro-2H-1,4-thiazin-3-amine 1,1-dioxide] | 3.99 | 0.663 | 50.5
Cc1cc(-c2cnc(Oc3ccc(F)c([C@]4(C)CS(=O)(=O)C(C)(C)C(N)=N4)c3)c(F)c2)on1 [Example 256, (5R)-5-(2-fluoro-5-((3-fluoro-5-(3-methyl-5-isoxazolyl)-2-pyridinyl)oxy)phenyl)-2,2,5-trimethyl-5,6-dihydro-2H-1,4-thiazin-3-amine 1,1-dioxide] | 1.82 | 0.65 | 195
CC(C)(C)Cc1ccc(Oc2ccc(F)c([C@]3(C)CS(=O)(=O)C(C)(C)C(N)=N3)c2)nc1 [Example 257, (5R)-5-(5-((5-(2,2-dimethylpropyl)-2-pyridinyl)oxy)-2-fluorophenyl)-2,2,5-trimethyl-5,6-dihydro-2H-1,4-thiazin-3-amine 1,1-dioxide] | 7.79 | 18.9 | 187
CC1(C)C(N)=N[C@](C)(c2cc(Oc3ncccc3Cl)ccc2F)CS1(=O)=O [Example 258, (5R)-5-(5-((3-chloro-2-pyridinyl)oxy)-2-fluorophenyl)-2,2,5-trimethyl-5,6-dihydro-2H-1,4-thiazin-3-amine 1,1-dioxide] | 0.121 | 0.0969 | 207
CC1(C)C(N)=N[C@](C)(c2cc(Oc3cc(C(F)(F)F)ccn3)ccc2F)CS1(=O)=O [Example 259, (5R)-5-(2-fluoro-5-((4-(trifluoromethyl)-2-pyridinyl)oxy)phenyl)-2,2,5-trimethyl-5,6-dihydro-2H-1,4-thiazin-3-amine 1,1-dioxide] | 0.248 | 0.153 | 1050

Stronger by IC50 [1], values ahead:

IC50 [1] [µM] | IC50 [2] [µM] | IC50 (Cathepsin D (Cat D)) [µM] | SMILES
0.0237 | 0.00415 | 390 | COc1cnc2c(Nc3ccc(F)c([C@]4(CF)CS(=O)(=O)C5(CCC5)C(N)=N4)c3)nccc2c1 [Example 239, N-(3-((7S)-9-amino-7-(fluoromethyl)-5,5-dioxido-5-thia-8-azaspiro[3.5]non-8-en-7-yl)-4-fluorophenyl)-3-methoxy-1,7-naphthyridin-8-amine]
0.0272 | 0.0017 | 57.1 | NC1=N[C@](CF)(c2cc(Nc3ncnc4cc(Cl)cnc34)ccc2F)CS(=O)(=O)C12CCC2 [Example 240, N-(3-((7S)-9-amino-7-(fluoromethyl)-5,5-dioxido-5-thia-8-azaspiro[3.5]non-8-en-7-yl)-4-fluorophenyl)-7-chloropyrido[3,2-d]pyrimidin-4-amine]
0.014 | 0.00147 | 119 | COc1cnc2c(Nc3ccc(F)c([C@]4(CF)CS(=O)(=O)C5(CCC5)C(N)=N4)c3)ncnc2c1 [Example 242, N-(3-((7S)-9-amino-7-(fluoromethyl)-5,5-dioxido-5-thia-8-azaspiro[3.5]non-8-en-7-yl)-4-fluorophenyl)-7-methoxypyrido[3,2-d]pyrimidin-4-amine]
0.0216 | 0.00146 | 811 | COc1cnc2c(Nc3ccc(F)c([C@]4(CF)CS(=O)(=O)C5(CCC5)C(N)=N4)c3)nccc2n1 [Example 246, N-(3-((7S)-9-amino-7-(fluoromethyl)-5,5-dioxido-5-thia-8-azaspiro[3.5]non-8-en-7-yl)-4-fluorophenyl)-2-methoxypyrido[3,4-b]pyrazin-5-amine]
0.0209 | 0.00304 | 199 | COc1cnc2c(Nc3ccc(F)c([C@]45COC[C@H]4S(=O)(=O)C(C)(C)C(N)=N5)c3)nccc2n1 [Example 248, N-(3-((4aS,7aS)-3-amino-2,2-dimethyl-1,1-dioxido-7,7a-dihydro-2H-furo[3,4-b][1,4]thiazin-4a(5H)-yl)-4-fluorophenyl)-2-methoxypyrido[3,4-b]pyrazin-5-amine]
0.0135 | 0.00058 | 42.8 | C[C@]1(c2cc(Nc3nccc4cc(C#N)cnc34)ccc2F)N=C(N)C2(CCC2)S(=O)(=O)C1F (stereo partly drawn) [Example 251, 8-((3-((7R)-9-amino-6-fluoro-7-methyl-5,5-dioxido-5-thia-8-azaspiro[3.5]non-8-en-7-yl)-4-fluorophenyl)amino)-1,7-naphthyridine-3-carbonitrile]
0.0006 | 0.0006 | 354 | CC#CCOc1cnc2c(Nc3ccc(F)c([C@]4(C)CS(=O)(=O)C(C)(C)C(N)=N4)c3)nccc2c1 [Example 254, N-(3-((3R)-5-amino-3,6,6-trimethyl-1,1-dioxido-3,6-dihydro-2H-1,4-thiazin-3-yl)-4-fluorophenyl)-3-(2-butyn-1-yloxy)-1,7-naphthyridin-8-amine]
